We go through ten compounds from paper PMC8152588 (RSC Medicinal Chemistry, 2021).

The structures appear in SMILES notation. Like-named read-outs stand apart in the source and are kept apart here.

In data set [1] the test system is NRK (normal rat kidney epithelial) cells. Description: Cytotoxicity. The format is cell-based. To be noted: for EC50: ±SEM; for Selectivity towards leukemic cells compared with NRK cells (factor): MOLM-13 vs NRK.
In a further data set the test system is MOLM-13 human AML cells. The settings on record: ref Viktorsson et al.[26], cited from earlier work.
A short description of the next data set: Solubility observation. The format is physicochemical. The settings on record: cell media / DMSO.
The mark [2] stands for this setting: read-out: EC50 (μM) NRK 2% O2, 2% O2, 24 h exposure.
The mark [3] stands for this setting: read-out: EC50 (μM) MOLM-13 2% O2, 2% O2, ±SEM.
The mark [4] stands for this setting: read-out: EC50 (μM) MOLM-13 19% O2, 19% O2, ±SEM.
Where [5] appears, read: read-out: EC50 (μM) NRK 19% O2, 19% O2, 24 h exposure.

Regarding `[O-][n+]1c2cccc(O)c2[n+]([O-])c2cccc(O)c21` [Compound 3, 1,6-dihydroxyphenazine 5,10-dioxide], the EC50 in data set [1] (setting [2]) was above 50 µM; in the data set with MOLM-13 human AML cells (setting [3]), 0.79 ± 0.1 µM; with MOLM-13 human AML cells (setting [4]), 2 ± 0.07 µM. With `COc1cccc2c1[n+]([O-])c1cccc(O)c1[n+]2[O-]` [Compound 4, 1-hydroxy-6-methoxyphenazine 5,10-dioxide], the “Selectivity towards leukemic cells compared with NRK cells (factor)” value in data set [1] (hypoxic conditions (2% O2)) is on record as “around 100”. Also, the 50% effective concentration (EC50) was 0.77 ± 0.13 µM with MOLM-13 human AML cells (setting [3]) and 1.4 ± 0.3 µM with MOLM-13 human AML cells (setting [4]).

In the case of `CCOC(=O)COc1cccc2c1[n+]([O-])c1cccc(O)c1[n+]2[O-]` [Compound 7, 1-hydroxy-6-(2-ethoxy-2-oxoethoxy) phenazine 5,10-dioxide], the EC50 is 0.49 ± 0.12 µM in the data set with MOLM-13 human AML cells (setting [3]) and 0.57 ± 0.06 µM with MOLM-13 human AML cells (setting [4]). Take `Nc1n[n+]([O-])c2ccccc2[n+]1[O-]` [Compound 10, 3-amino-1,2,4-benzotriazine 1,4-dioxide]: the EC50 in data set [1] (setting [5]) was above 100 µM; in the data set on MOLM-13 human AML cells (setting [3]), 22 ± 2 µM; with MOLM-13 human AML cells (setting [4]) it was 95 ± 8 µM.

Regarding `CCOC(=O)Oc1cccc2c1[n+]([O-])c1cccc(OC(=O)OCC)c1[n+]2[O-]` [Compound 14], the EC50 in data set [1] (setting [2]) was above 25 µM. Turning to `[O-][n+]1c2ccccc2[n+]([O-])c2c(O)cccc21` [Compound 21, 1-Hydroxyphenazine 5,10-dioxide], the EC50 in data set [1] (setting [2]) is above 100 µM. With `Cc1cc2c(cc1C)[n+]([O-])c1c(O)cccc1[n+]2[O-]` [Compound 44, 7,8-Dimethyl-1-hydroxyphenazine 5,10-dioxide], the EC50 in data set [1] (setting [2]) was above 50 µM. For the compound `[O-][n+]1c2cc3ccccc3cc2[n+]([O-])c2c(O)cccc21` [Compound 45], the Solubility entry in “Solubility observation” was “practically insoluble”. With `CCOC(=O)COc1cccc2c1[n+]([O-])c1cc(C)c(C)cc1[n+]2[O-]` [Compound 48], the EC50 in data set [1] (setting [2]) is above 100 µM; in data set [1] (setting [5]) it was 140 ± 2 µM. For `CN1CCN(C(=O)Oc2cccc3c2[n+]([O-])c2cc(Cl)c(Cl)cc2[n+]3[O-])CC1` [Compound 54], the “Selectivity towards leukemic cells compared with NRK cells (factor)” value in data set [1] (19% O2) is “more than 30”.
